In PubChem BioAssay (NCI):
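Briefly, cells in 96-well plates were exposed to five compound concentrations for 48 h, and endpoints were estimated by linear interpolation. GI50 is the concentration that inhibits growth by half. TGI: concentration producing complete growth inhibition.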

Legend:
Assay in all cases: DTP human tumour cell line panel, 48 h
NCI-H226 lung = tested on: NCI-H226 lung
HT29 colon = tested on: HT29 colon
SNB-19 CNS = tested on: SNB-19 CNS
UACC-257 melanoma = tested on: UACC-257 melanoma
SR leukemia = tested on: SR leukemia
SW-620 colon = tested on: SW-620 colon
786-0 renal = tested on: 786-0 renal
HL-60(TB) leukemia = tested on: HL-60(TB) leukemia
A549 NSCLC = tested on: A549 NSCLC
HCT-15 colon = tested on: HCT-15 colon

Row | Compound | GI50 (NCI-H226 lung) [µM] | TGI (NCI-H226 lung) [µM] | GI50 (HT29 colon) [µM] | TGI (HT29 colon) [µM] | GI50 (SNB-19 CNS) [µM] | TGI (SNB-19 CNS) [µM] | GI50 (UACC-257 melanoma) [µM] | TGI (UACC-257 melanoma) [µM] | GI50 (SR leukemia) [µM] | TGI (SR leukemia) [µM] | GI50 (SW-620 colon) [µM] | TGI (SW-620 colon) [µM] | GI50 (786-0 renal) [µM] | TGI (786-0 renal) [µM] | GI50 (HL-60(TB) leukemia) [µM] | TGI (HL-60(TB) leukemia) [µM] | GI50 (A549 NSCLC) [µM] | TGI (A549 NSCLC) [µM] | GI50 (HCT-15 colon) [µM] | TGI (HCT-15 colon) [µM]
1 | NC(=O)c1ccc(I)c([N+](=O)[O-])c1 | > 100 | > 100 | 58 | > 100 | > 100 | > 100 | > 80.4 | > 100 | 32.8 | > 100 | > 100 | > 100 | > 100 | > 100 | 29.9 | > 95.7 | > 94.5 | > 100 | > 77.3 | > 100
2 | Oc1cccc2ccc(SSc3ccc4cccc(O)c4n3)nc12 | – | > 100 | – | 41.5 | – | > 100 | – | 43.2 | – | > 100 | – | 96.4 | – | 40.4 | – | 56.7 | – | > 100 | – | 53.3
3 | COC(=O)[C@@H](C)C[C@H](Cc1ccc(F)cc1)NC(=O)c1csc([C@@H](C[C@H](C(C)C)N(C)C(=O)[C@@H](NC(=O)[C@H]2CCCCN2C)C2CC2)OC(C)=O)n1 | 1.26 | > 13.9 | 0.107 | > 25 | 0.164 | > 25 | > 15.5 | > 25 | 0.0282 | > 25 | 0.129 | > 25 | 0.831 | > 25 | 0.054 | – | 0.959 | > 25 | 0.828 | > 25
4 | O=C1NN(C(=O)c2ccccc2)C(c2ccc(Cl)c(Cl)c2)=C/C1=C\c1ccccc1[N+](=O)[O-] | 1.44 | > 6.75 | 2.3 | > 6.75 | 0.339 | > 6.75 | 5.23 | > 6.75 | 2.07 | > 6.75 | 2.27 | > 6.75 | 2.2 | > 6.75 | 2.01 | > 6.75 | 2.11 | > 6.75 | 0.923 | 2.99
5 | CCCCNC(=O)Oc1ccc(/C(=C(\C)c2ccc(OC)cc2)c2ccc(OCCN3CCCCC3)cc2)cc1 | 7.77 | 27.9 | 0.873 | 6.77 | 3.95 | 15.2 | 2.72 | 6.71 | 1.59 | 4.63 | 2.45 | 6.15 | 1.47 | 2.83 | 1.53 | 3.58 | 4.15 | 16 | 1.67 | 4.52
6 | C[N+]1(CCNP(=S)(NCC[N+]2(C)Cc3c(ccc4c3OCO4)C3C2c2cc4c(cc2C[C@@H]3O)OCO4)NCC[N+]2(C)Cc3c(ccc4c3OCO4)C3C2c2cc4c(cc2C[C@@H]3O)OCO4)Cc2c(ccc3c2OCO3)C2C1c1cc3c(cc1C[C@H]2O)OCO3 (some centres not stated) | – | 79.6 | 1.34 | – | 7.66 | – | 1.44 | – | 1.75 | – | 1.4 | – | 5.22 | – | 1.02 | – | 2.89 | – | – | < 0.00191
7 | OC(c1cc2ccccc2[nH]1)C(O)(c1cc2ccccc2[nH]1)c1cc2ccccc2[nH]1 (configuration not stated) | – | 40.4 | – | 36.2 | – | > 245 | – | 64.6 | – | > 245 | – | 43.1 | – | 20.8 | – | 127 | – | 63 | – | 33
8 | CCC(CO)Nc1nc(NCc2ccccc2)c2n[nH]c(C(C)C)c2n1 (configuration not stated) | 23.8 | 60.8 | 3.88 | 27.8 | 15.8 | 30.5 | 16.6 | 35.6 | 3.24 | 10.6 | 4.76 | 18 | 6.68 | 21.5 | 4.87 | 21 | 12 | 46.4 | 14.7 | 49.7
9 | C/C(=N\N)C(CN1CCOCC1)C(c1ccccc1)c1c(O)c2ccccc2oc1=O (configuration not stated) | – | > 100 | – | > 100 | – | > 100 | – | > 100 | – | > 100 | – | > 100 | – | > 100 | – | > 100 | – | > 100 | – | > 100
10 | O=c1cc(-c2ccccc2)oc2c(O)c(O)ccc12 | 21 | > 100 | 35.4 | > 100 | 16.8 | > 100 | 18.6 | 88.5 | 3.35 | > 100 | 6.66 | > 100 | 5.99 | 75.1 | 11.1 | 55.3 | 7.22 | 91.5 | 5.45 | > 100
11 | COc1ccc2c(c1)/C(=C\c1c(-c3ccccc3)nc3sccn13)C(=O)N2 | 3.44 | 33.7 | 8.17 | > 40.7 | > 21.5 | > 58.3 | 28.7 | 89.3 | 24 | > 100 | – | > 49.6 | 9.01 | 31.2 | 5.09 | > 35.6 | 7.2 | > 100 | – | > 35.6
12 | COc1ccc2c(c1)c1ccc3c(c1n2C)C(=O)C=CC3=O | – | 32.8 | – | 34.9 | – | 53 | – | 24.9 | – | 5.59 | – | 10.7 | – | 14.7 | – | 4.94 | – | 68.7 | – | 10.9
13 | COc1cccc(/C=C2\N=C(Cl)OC2=O)c1O | – | > 100 | – | > 100 | – | > 100 | – | > 100 | – | > 100 | – | > 100 | – | > 100 | – | > 100 | – | > 100 | – | > 100
14 | C=C[C@@H]1CCC/C=C/[C@@H]2C[C@H](O)C[C@H]2[C@H](O)/C=C/C(=O)O1 | 0.265 | 0.784 | 0.342 | 1.6 | 1.45 | > 100 | 0.317 | > 100 | 1.64 | > 28 | 0.361 | 1.57 | 0.257 | 0.606 | 2.23 | > 25.2 | 0.469 | > 100 | 2.23 | > 100
15 | COc1ccc(-c2oc3ncnc(N)c3c2-c2ccc(NC(=O)Nc3cc(C(F)(F)F)ccc3F)cc2)cc1 | 0.601 | 8.36 | 0.844 | 3.12 | 1.61 | 12.2 | 2.46 | 6.69 | 0.833 | 8.61 | 0.952 | 3.58 | 1.45 | 5.49 | 2.58 | 9.31 | 0.762 | 3.43 | 1.04 | 6.65
16 | NC1=C(O)/C(=N/NS(=O)(=O)c2ccccc2)C(c2ccc3c(c2)OCO3)O1 (configuration not stated) | – | > 100 | – | > 100 | – | > 100 | – | > 100 | – | > 100 | – | > 100 | – | > 100 | – | > 100 | – | > 100 | – | > 100
17 | CC1(C)N=C(N)N=C(N)N1c1cccc(CCCCc2ccc(Cl)c(S(=O)(=O)F)c2)c1 | 8.38 | 28.5 | 0.441 | 16.3 | 3.3 | 18.4 | 1.14 | 18.7 | 2.44 | 16.8 | 0.455 | 15.8 | 2.67 | 16.3 | 0.563 | 12.1 | 4.38 | 36 | 6.47 | > 100
18 | COc1ccc(/C=C/c2cc(OC)c(OC)c(OC)c2)cc1OC | – | > 100 | – | > 100 | – | > 100 | – | > 100 | – | > 100 | – | > 100 | – | > 100 | – | > 100 | – | > 100 | – | > 100
19 | CCCC(=O)Oc1ccc(/C=N/NC(N)=S)nc1 | – | > 100 | – | > 100 | – | > 100 | – | > 100 | – | > 100 | – | > 100 | – | > 100 | – | > 100 | – | > 100 | – | > 100
20 | COc1ccc(Cc2ccc3[nH]c(=O)cc(C)c3c2)cc1S(=O)(=O)O | – | > 100 | – | > 100 | – | > 100 | – | > 100 | – | > 100 | – | > 100 | – | > 100 | – | > 100 | – | > 100 | – | > 100
21 | O=CC1=CCCN(CCc2c[nH]c3ccccc23)C1 | – | 102 | – | 116 | – | 92.9 | – | 132 | – | > 393 | – | 89.9 | – | 117 | – | 91.3 | – | > 393 | – | 83.2
22 | O=C(O)C(Cc1ccccc1)N=Cc1nc(-c2ccccc2)oc1O (configuration not stated) | – | > 100 | – | > 100 | – | > 100 | – | > 100 | – | > 100 | – | > 100 | – | > 100 | – | > 100 | – | > 100 | – | > 100
23 | CC(=O)OC1CC2C(C)(C)C(=O)C=C[C@]2(C)C2CCC3(C)C(c4ccoc4)C(=O)C4OC43[C@]12C (some centres not stated) | – | 32.7 | – | 32.1 | – | 80.7 | – | 35.1 | – | 39.4 | – | 42 | – | 69.3 | – | 29.9 | – | 46 | – | 29.9
24 | OCC1CC2C=CCC(C2)C1 (configuration not stated) | – | > 100 | – | > 100 | – | > 100 | – | > 100 | – | > 100 | – | > 100 | – | > 100 | – | > 100 | – | > 100 | – | –
25 | Cn1cnc(SC2=CC(=O)C=C3S[C@H]4C[C@@]23c2c(c(O)c3c5c2=NCCC=5C=N3)N4)c1CC(N)C(=O)O (some centres not stated) | 15.8 | 33.8 | 2.18 | 11.7 | 19.3 | 33.5 | 11.6 | 23.8 | 20.9 | 98.9 | – | 9.52 | 13.6 | 26.8 | 3.18 | 8.27 | – | 30.2 | 18.4 | 33.7
26 | COc1cc(OCCCN2CCCC2)ccc1Nc1ncc(Cl)c(Nc2ccccc2P(C)(C)=O)n1 | 1.59 | 6.45 | 0.521 | 3.79 | 4.11 | 34.3 | 6.42 | 24 | 0.0173 | – | 1.37 | 5.36 | 2.7 | 11.6 | 1.36 | 6.19 | 2.14 | 10.6 | 3.67 | > 46.6
27 | OCC#Cc1ccccc1C#Cc1ccc(C#Cc2ccccc2C#CCO)cc1 | 56.8 | > 100 | 45.4 | > 100 | 50 | > 100 | 89.5 | > 100 | 22 | 49.5 | 38.1 | > 100 | 32 | 82.6 | 90.5 | > 100 | 32.7 | > 100 | > 100 | > 100
28 | [Mn+3].[O-][Cl+3]([O-])([O-])O.[O-]c1ccccc1C=NCCN1CC1.[O-]c1ccccc1C=NCCN1CC1 | 12.3 | 35.8 | 20.2 | 44.1 | 44.6 | > 100 | 18.1 | 46.2 | 18.4 | 39.4 | 17.1 | > 100 | 27.2 | > 100 | 14.7 | 37 | 38.6 | > 100 | 4.15 | 18.3
29 | Cc1ccc([N+](=O)[O-])cc1NC(=O)C(=O)Cc1nc2ccc(C(=O)c3ccccc3)cc2[nH]c1=O | – | > 100 | – | > 100 | – | > 100 | – | > 100 | – | > 100 | – | > 100 | – | > 100 | – | > 100 | – | > 100 | – | > 100
30 | CCCC[C@H](CCc1ccccc1)N(C(=O)OC)N1CCC[C@H]1COC | – | 36.2 | – | 29.4 | – | 30.4 | – | 36.2 | – | > 100 | – | 29.8 | – | 45.2 | – | > 100 | – | 67.1 | – | –
